Experimental data reported in ChEMBL document CHEMBL5725243, “Cyclopentylbenzamide derivatives and their use for the treatment of psychotic and cognitive disorders” (2016).

Legend:
Orexin receptor type 2 = molecular target: T1, Orexin receptor type 2 (Homo sapiens, UniProt O43614); experiment: (§1) Fluorescent Imaging Plate Reader (FLIPR) Assay: Orexin antagonist activity was determined by measuring changes in intracellular calcium levels using a Ca2+ sensitive fluorescent dye. The changes in fluorescent signal were monitored by Fluorescent Imaging Plate Reader (FLIPR) technology available from Molecular Devices, LLC, U.S.A. Orexin mediated increases in intracellular Ca2+ concentration were readily detected upon activation with orexin-A. Twenty-four hours prior to the assay, RBL-2H3 cells stably expressing either human orexin receptor 1 or human orexin receptor 2 were seeded in cell culture medium in black, clear-bottom 384-well plates (commercially available from Corning Inc., U.S.A.) and grown overnight at 37° C., 5% CO2. On the day of the assay, cell culture media was removed and cells were loaded with Calcium 5 Dye (commercially sold by Molecular Devices, LLC, U.S.A.) for 1 hour at 37° C., 5% CO2. Test compounds (at 10 point half log concentration response curves from 10 uM) were added to cells for 15 minutes prior to the addition of orexin-A to all wells, to achieve a final concentration that produces approximately an 80% maximal response. The IC50 values were determined from ten point concentration response curves. Curves were generated using the average of two wells for each data point.; type: cell-based
T1 sequence (O43614 whole entry): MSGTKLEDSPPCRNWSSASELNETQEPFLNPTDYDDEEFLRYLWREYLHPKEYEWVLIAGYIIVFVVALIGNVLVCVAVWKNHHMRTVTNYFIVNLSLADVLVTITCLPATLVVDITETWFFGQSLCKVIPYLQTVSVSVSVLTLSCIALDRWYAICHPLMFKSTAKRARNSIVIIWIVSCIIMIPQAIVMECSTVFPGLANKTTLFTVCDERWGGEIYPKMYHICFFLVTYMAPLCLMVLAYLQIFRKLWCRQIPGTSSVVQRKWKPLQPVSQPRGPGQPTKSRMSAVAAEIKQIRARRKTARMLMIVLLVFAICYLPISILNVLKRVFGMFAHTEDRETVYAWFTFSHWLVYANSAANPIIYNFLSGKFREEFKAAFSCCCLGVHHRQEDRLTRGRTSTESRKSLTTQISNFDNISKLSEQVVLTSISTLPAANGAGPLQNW

[1] = molecular target: T2, Orexin/Hypocretin receptor type 1 (Homo sapiens, UniProt O43613); experiment: as §1; type: cell-based
T2 sequence (O43613 whole entry): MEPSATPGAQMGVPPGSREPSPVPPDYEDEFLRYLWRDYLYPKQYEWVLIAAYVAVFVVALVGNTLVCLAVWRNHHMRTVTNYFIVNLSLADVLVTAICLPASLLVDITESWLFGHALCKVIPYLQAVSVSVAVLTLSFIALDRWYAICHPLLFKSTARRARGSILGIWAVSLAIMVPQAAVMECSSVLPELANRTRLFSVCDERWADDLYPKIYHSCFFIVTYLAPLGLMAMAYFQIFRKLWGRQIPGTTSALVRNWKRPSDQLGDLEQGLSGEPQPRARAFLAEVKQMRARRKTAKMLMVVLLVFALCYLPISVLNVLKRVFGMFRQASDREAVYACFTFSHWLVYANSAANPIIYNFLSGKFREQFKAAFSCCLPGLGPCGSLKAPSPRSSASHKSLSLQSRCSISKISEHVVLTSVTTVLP

Cc1ccc(-n2nccn2)c(C(=O)N[C@H]2CCC[C@@H]2Nc2ncc3ccccc3n2)c1
IC50 (Orexin receptor type 2): > 10000 nM
IC50 [1]: 24 nM

CCOc1cccc(OCC)c1C(=O)N[C@@H]1CCC[C@@H]1Nc1nc2ccccc2o1
IC50 (Orexin receptor type 2): 1200 nM
IC50 [1]: 130 nM

COc1cccc(OC)c1C(=O)N[C@@H]1COC[C@@H]1Nc1nc2ccc(Cl)cc2s1 (relative stereo)
IC50 (Orexin receptor type 2): 1400 nM
IC50 [1]: 220 nM
